Reference: PubChem BioAssay (NCI)
Where “and” joins values, the source holds several entries; their conditions need not be identical. Identical values can stand only once.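 Five concentrations, 48 hours, 96-well plates. GI50 = concentration required for 50% inhibition of growth. TGI: total growth inhibition.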

What was measured:
Assay in all cases: NCI-60 cell line screen, 48 h
[1] = test system: 786-0 renal
[2] = test system: MDA-MB-231 breast
[3] = test system: M14 melanoma
[4] = test system: COLO 205 colon
[5] = test system: RXF 393 renal
[6] = test system: SR leukemia
[7] = test system: ACHN renal
[8] = test system: PC-3 prostate
[9] = test system: A549 NSCLC
[10] = test system: SK-MEL-28 melanoma

| Compound | TGI [1] [µM] | TGI [2] [µM] | TGI [3] [µM] | TGI [4] | GI50 [5] [µM] | TGI [6] [µM] | TGI [7] [µM] | TGI [8] [µM] | TGI [9] [µM] | TGI [10] [µM] | TGI [5] [µM] | GI50 [1] [µM] | GI50 [2] [µM] | GI50 [3] [µM] | GI50 [4] [µM] | GI50 [6] [µM] | GI50 [7] [µM] | GI50 [8] [µM] | GI50 [9] [µM] | GI50 [10] [µM] |
| --- | --- | --- | --- | --- | --- | --- | --- | --- | --- | --- | --- | --- | --- | --- | --- | --- | --- | --- | --- | --- |
| CCOc1ccc(NCc2cc(OC)c(OC)c(OC)c2)cc1 | > 100 | > 100 | > 100 | 2.46 µM and 5.04 µM | 2.24 | > 100 | > 100 | > 100 | > 100 | > 100 | – | – | – | – | – | – | – | – | – | – |
| Cc1cc2c3ccccc3n(C)c2c2c1C(=O)C=CC2=O | 13.4 | 32.7 | 31.9 | 33.6 µM | – | 38.9 | 41.7 | 21.5 | > 77.8 | 42.7 | 20.5 | – | – | – | – | – | – | – | – | – |
| C=C1CC[C@@H]2[C@](C)(COC(C)=O)[C@H](OC(C)=O)CC[C@@]2(C)[C@@H]1CC(Nc1ccc(S(=O)(=O)Nc2nccc(C)n2)cc1)C1=CCOC1=O (stereo not given in full) | 5.06 | 10.2 | 10.8 | 4.66 µM | 2.33 | > 100 | 13 | 15.7 | 21.9 | 10.1 | 4.18 | 2.27 | 3.62 | 2.81 | 2.09 | 0.753 | 3.64 | 4.46 | 8.19 | 2.83 |
| Fc1ccc2[nH]c3c(NCCCN4CCOCC4)ncnc3c2c1 | > 100 | > 100 | > 100 | 42.4 µM | 34.5 | > 100 | > 100 | > 100 | – | > 100 | > 100 | > 100 | 23.6 | 36 | 20.7 | 28.8 | 47.5 | 65.7 | – | 70.4 |
| CC(=O)OCC1OC(n2ccc(=O)[nH]c2=O)C(OC(C)=O)C1OC(C)=O (stereo not given) | > 100 | > 100 | > 100 | > 100 µM | > 100 | – | > 100 | > 100 | > 100 | > 100 | > 100 | > 100 | > 100 | > 100 | > 100 | – | > 100 | > 100 | > 100 | > 100 |
| CCc1cc(O)c(Cl)c(C)c1Cl | 30.8 | 81.1 | 63.6 | 41.4 µM | – | – | 31.5 | 40.2 | > 100 | 36.6 | 28.7 | – | – | – | – | – | – | – | – | – |
| C[C@@H]1COCCN1c1cc(C2(S(C)(=N)=O)CC2)nc(-c2ccnc3[nH]ccc23)n1 (stereo not given in full) | 96.8 | 74.7 | – | 29 µM | 1.46 | – | 4.3 | 74.2 | 35.2 | 25.8 | 6.76 | 1.25 | 3.92 | – | 11.7 | – | 0.592 | 12.8 | 3.35 | 5.59 |
| CC(=O)[O-].CC(=O)[O-].[NH2-].[Pt+2].c1ccc2cnccc2c1 | > 100 | > 100 | > 100 | > 100 µM | 0.0522 | – | 13.4 | > 100 | 15.7 | > 100 | 24 | 37.9 | 27.3 | 59.1 | 24.7 | – | 2.26 | > 100 | 0.147 | 52.6 |
| Clc1nc(Cl)c2ncn(Cc3ccc(COc4cccc(OCc5ccc(Cn6cnc7c(Cl)nc(Cl)nc76)cc5)c4)cc3)c2n1 | > 100 | 53.2 | 85.9 | > 100 µM | > 100 | – | > 100 | > 100 | > 100 | > 100 | > 100 | 36.2 | 17.4 | 21.9 | > 100 | – | 45.4 | 24.1 | > 100 | 52.8 |
| CC(C)NC(=O)OCCS(=O)c1c(Cl)c(Cl)nn1C (stereo not given) | 72.6 | 70.7 | 39.4 | 44 µM | – | > 100 | > 100 | > 100 | > 100 | > 100 | – | – | – | – | – | – | – | – | – | – |
| CN(C)CCOc1ccc2c(c1)C/C(=C/c1ncc([N+](=O)[O-])n1C)C2=O | 26.4 | 8.42 | 5.71 | 3.33 µM | – | – | 4.71 | 18.3 | 7.74 | 33.4 | 3.69 | – | – | – | – | – | – | – | – | – |
| Cc1nc2sc(C(=O)Nc3ccccc3)c(N)c2cc1C(=O)/C=C/c1ccccc1 | 3.01 | 11.3 | 4.49 | 4.49 µM | 1.67 | 11.7 | 3.45 | 5.55 | 4.91 | – | 3.25 | 1.51 | 3.41 | 1.76 | 2.02 | 1.38 | 1.81 | 2.14 | 2.08 | – |
| C[C@@H]1CN(CC(=O)N2CC(C)(C)c3nc(CO)c(Cc4ccc(F)cc4)cc32)[C@@H](CN2CCOC[C@H]2C)CN1 | > 100 | 21.8 | 37.9 | 41.4 µM | – | 73.3 | > 100 | > 100 | > 100 | 37.5 | – | 47.4 | 2.02 | 18.6 | 21.3 | 18.9 | > 100 | 58.5 | > 100 | 18.6 |
| c1cnc2[nH]cc(-c3csc(-c4cn(CCCCN5CCOCC5)c5ccccc45)n3)c2c1 | 3.33 | 3.27 | 3.62 | 3.51 µM | 1.67 | – | – | 4.01 | 4.13 | 3.3 | 3.31 | 1.85 | 1.58 | 1.78 | 1.73 | – | – | 1.59 | 1.89 | 1.81 |
| CCCCCCCCCCCCCC(=O)CBr | 11.3 | 34.2 | 26.6 | 30.1 µM | – | – | 30.1 | 16.3 | 50.7 | 30.7 | 10.5 | – | – | – | – | – | – | – | – | – |
| Nc1nc2c(c(=O)[nH]1)CN(c1ccc(S(N)(=O)=O)cc1)CN2 | > 100 | > 100 | > 100 | > 100 µM | – | > 100 | > 100 | > 100 | > 100 | > 100 | – | – | – | – | – | – | – | – | – | – |
